What all share (assay type): biochemical
Holding throughout (settings): mouse brain membrane proteome

Assay [1] has as its target FAAH (Mus musculus (Mouse), UniProt O08914). In words: In vitro competitive activity-based protein profiling (FP-Rh), mouse FAAH. The protocol:
(§1) In Vitro Competitive Activity-Based Protein Profiling.
(§2) Proteomes (mouse brain membrane fraction or cell lysates) ([…], 1.0 mg/mL total protein concentration) were preincubated with varying concentrations of inhibitors at 37° C. After 30 min, FP-Rh (1.0 μL, 50 μM in DMSO) was added and the mixture was incubated for another 30 min at 37° C. Reactions were quenched with SDS loading buffer (50 μL—4×) and run on SDS-PAGE.

In assay [2] the target is ABHD6 (Mus musculus (Mouse), UniProt Q8R2Y0). The assay can be described thus: In vitro competitive activity-based protein profiling (FP-Rh), mouse ABHD6. The protocol:
as §1, §2

Assay [3] deals with MAGL (Mus musculus (Mouse), UniProt O35678). The assay can be described thus: In vitro competitive activity-based protein profiling (FP-Rh), mouse MAGL. As for the experimental part:
as §1, §2

SMILES strings stand for the structures.

Sequence of ABHD6 (Q8R2Y0 whole entry): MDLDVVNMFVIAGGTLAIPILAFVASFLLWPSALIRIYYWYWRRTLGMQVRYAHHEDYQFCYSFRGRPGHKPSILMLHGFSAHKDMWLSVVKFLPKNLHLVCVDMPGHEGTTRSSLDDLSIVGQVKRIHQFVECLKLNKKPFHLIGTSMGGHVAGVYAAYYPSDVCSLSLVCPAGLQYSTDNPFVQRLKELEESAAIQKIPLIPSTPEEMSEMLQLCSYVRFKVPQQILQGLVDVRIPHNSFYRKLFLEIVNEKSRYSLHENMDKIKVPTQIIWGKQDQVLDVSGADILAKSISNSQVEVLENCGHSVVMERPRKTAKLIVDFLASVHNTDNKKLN
Sequence of MAGL (O35678 whole entry): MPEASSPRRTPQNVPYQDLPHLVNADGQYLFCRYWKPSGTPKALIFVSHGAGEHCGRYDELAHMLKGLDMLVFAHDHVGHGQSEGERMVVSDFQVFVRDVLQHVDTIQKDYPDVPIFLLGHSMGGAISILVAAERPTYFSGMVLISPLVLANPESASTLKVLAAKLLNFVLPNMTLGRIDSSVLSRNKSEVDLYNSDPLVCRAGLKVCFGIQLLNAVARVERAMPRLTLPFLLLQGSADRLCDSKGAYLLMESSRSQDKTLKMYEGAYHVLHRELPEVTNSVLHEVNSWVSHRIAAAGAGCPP
Sequence of FAAH (O08914 whole entry): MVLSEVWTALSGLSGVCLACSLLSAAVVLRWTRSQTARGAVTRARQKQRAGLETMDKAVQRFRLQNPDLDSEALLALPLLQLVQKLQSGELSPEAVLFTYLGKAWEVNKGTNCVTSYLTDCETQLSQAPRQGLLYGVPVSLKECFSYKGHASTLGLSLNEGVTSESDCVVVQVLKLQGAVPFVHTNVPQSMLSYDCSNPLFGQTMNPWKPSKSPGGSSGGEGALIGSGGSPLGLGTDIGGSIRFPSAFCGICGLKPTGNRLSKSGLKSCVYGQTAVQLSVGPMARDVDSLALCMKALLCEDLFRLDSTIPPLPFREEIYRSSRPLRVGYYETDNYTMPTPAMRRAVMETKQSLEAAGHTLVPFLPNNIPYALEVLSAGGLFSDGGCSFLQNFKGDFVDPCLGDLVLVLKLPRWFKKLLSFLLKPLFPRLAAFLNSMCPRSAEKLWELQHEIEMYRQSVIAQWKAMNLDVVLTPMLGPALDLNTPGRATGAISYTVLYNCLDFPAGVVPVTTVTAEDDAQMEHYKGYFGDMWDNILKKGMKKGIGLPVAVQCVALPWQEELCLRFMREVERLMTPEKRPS

By IC50 is commonly meant the midpoint of a concentration-inhibition curve. Lower therefore signals greater potency. In the case of `O=C(Oc1ccc([N+](=O)[O-])cc1)N1CCC(C(O)(c2ccc3c(c2)OCO3)c2ccc3c(c2)OCO3)CC1` [A, 4-nitrophenyl 4-(dibenzo[d][1,3]dioxol-5-yl(hydroxy)methyl)piperidine-1-carboxylate, reference compound], the IC50 in assay [1] (competitive ABPP) is 4700 nM; in assay [2] (competitive ABPP) it was 100 to 1000 nM.

`O=C(OC(C(F)(F)F)C(F)(F)F)N1CCN(C(c2ccc(Cl)cc2)c2ccc(Cl)cc2)CC1` [Example 2b, 1,1,1,3,3,3-hexafluoropropan-2-yl 4-(bis(4-chlorophenyl)methyl)-piperazine-1-carboxylate]: the IC50 in assay [1] (competitive ABPP) was more than 10000 nM. Consider `O=C(OC(C(F)(F)F)C(F)(F)F)N1CCN(C(c2ccc(-c3ccccc3)cc2)c2ccc3c(c2)OCO3)CC1` (centres unmarked) [Example 2g], for which the IC50 was more than 1000 nM in assay [3] (competitive ABPP), more than 10000 nM in assay [1] (competitive ABPP) and more than 1000 nM in assay [2] (competitive ABPP). As for `O=C(OC(C(F)(F)F)C(F)(F)F)N1CCN(C(c2cocn2)c2cocn2)CC1` [Example 2i, 1,1,1,3,3,3-hexafluoropropan-2-yl 4-(bis(oxazol-4-yl)methyl)piperazine-1-carboxylate], in assay [1] (competitive ABPP), the IC50 was more than 6000 nM.

`Cc1cc(Cl)ccc1C(c1ccc(Cl)cc1C)N1CCN(C(=O)OC(C(F)(F)F)C(F)(F)F)CC1` [Example 2j, 1,1,1,3,3,3-hexafluoropropan-2-yl 4-(bis(4-chloro-2-methylphenyl)methyl)piperazine-1-carboxylate]: the IC50 in assay [1] (competitive ABPP) was more than 10000 nM; in assay [2] (competitive ABPP), more than 1000 nM. `O=C(OC(C(F)(F)F)C(F)(F)F)N1CCN(C(c2cccnc2)c2cccnc2)CC1` [Example 2l, 1,1,1,3,3,3-hexafluoropropan-2-yl 4-(di(pyridin-3-yl)methyl)piperazine-1-carboxylate] registered an IC50 in assay [1] (competitive ABPP) of more than 10000 nM. Turning to `CN(Cc1cccc(-c2ccncc2)c1)C(=O)OC(C(F)(F)F)C(F)(F)F` [Example 3f, 1,1,1,3,3,3-hexafluoropropan-2-yl methyl(3-(pyridin-4-yl)benzyl)-carbamate], the IC50 in assay [1] (competitive ABPP) was more than 10000 nM; in assay [2] (competitive ABPP), 100 to 1000 nM. In assay [1] (competitive ABPP (Table 7)), `O=C(OC(C(F)(F)F)C(F)(F)F)N1CCN(Cc2cccc(Cl)c2N2CCOCC2)CC1` [Example 9ad, 1,1,1,3,3,3-hexafluoropropan-2-yl 4-[[3-chloro-2-(morpholin-4-yl)phenyl]methyl]piperazine-1-carboxylate] gave an IC50 of more than 10000 nM.

On to `O=C(OC(C(F)(F)F)C(F)(F)F)N1CCN(Cc2cc(Cl)ccc2N2CCOCC2)CC1` [Example 9ag, 1,1,1,3,3,3-hexafluoropropan-2-yl 4-[[5-chloro-2-(morpholin-4-yl)phenyl]methyl]piperazine-1-carboxylate], for which the IC50 in assay [1] (competitive ABPP (Table 7)) is more than 10000 nM; in assay [2] (competitive ABPP (Table 7)), more than 1000 nM. On to `O=C(OC(C(F)(F)F)C(F)(F)F)N1CCN(Cc2ccc(C(F)(F)F)cc2N2CCCC2)CC1` [Example 9aq, 1,1,1,3,3,3-hexafluoropropan-2-yl 4-(2-(pyrrolidin-1-yl)-4-(trifluoromethyl)benzyl)piperazine-1-carboxylate], for which the IC50 in assay [1] (competitive ABPP (Table 7)) was more than 10000 nM. In assay [1] (competitive ABPP (Table 7)), `O=C(OC(C(F)(F)F)C(F)(F)F)N1CCN(Cc2ccc(C(F)(F)F)cc2N2CCOCC2)CC1` [Example 9c, 1,1,1,3,3,3-hexafluoropropan-2-yl 4-[[2-(morpholin-4-yl)-4-(trifluoromethyl)phenyl]methyl]piperazine-1-carboxylate] displayed an IC50 of more than 10000 nM. Regarding `Cc1cc(N2CCOCC2)ccc1CN1CCN(C(=O)OC(C(F)(F)F)C(F)(F)F)CC1` [Example 9p, 1,1,1,3,3,3-hexafluoropropan-2-yl 4-(2-methyl-4-morpholinobenzyl)piperazine-1-carboxylate], the IC50 in assay [3] (competitive ABPP (Table 7)) was less than 100 nM. Same read-out and setting: under `O=C(OC(C(F)(F)F)C(F)(F)F)N1CCN(Cc2ccc(Br)cc2N2CCCCC2)CC1` [Example 9q, 1,1,1,3,3,3-hexafluoropropan-2-yl 4-(4-bromo-2-(piperidin-1-yl)benzyl)piperazine-1-carboxylate] stands 100 to 1000 nM; under `O=C(OC(C(F)(F)F)C(F)(F)F)N1CCN(Cc2ccc(Br)cc2N2CCOCC2)CC1` [Example 9r, 1,1,1,3,3,3-hexafluoropropan-2-yl 4-(4-bromo-2-morpholinobenzyl)piperazine-1-carboxylate], less than 100 nM. For the compound `O=C(OC(C(F)(F)F)C(F)(F)F)N1CCN(Cc2ccc(Cl)cc2N2CCOCC2)CC1` [Example 9t, 1,1,1,3,3,3-hexafluoropropan-2-yl 4-(4-chloro-2-morpholinobenzyl)piperazine-1-carboxylate], the IC50 in assay [1] (competitive ABPP (Table 7)) is more than 6250 nM.

In the case of `O=C(OC(C(F)(F)F)C(F)(F)F)N1CCN(Cc2ccc(Br)cc2N2CCCC2)CC1` [Example 9x, 1,1,1,3,3,3-hexafluoropropan-2-yl 4-(4-bromo-2-(pyrrolidin-1-yl)benzyl)piperazine-1-carboxylate], the IC50 in assay [1] (competitive ABPP (Table 7)) was more than 250 nM. For the compound `O=C(OC(C(F)(F)F)C(F)(F)F)N1CCN(Cc2ccccc2N2CCOCC2)CC1` [Example 9y, 1,1,1,3,3,3-hexafluoropropan-2-yl 4-(2-morpholinobenzyl)piperazine-1-carboxylate], the IC50 was less than 100 nM in assay [3] (competitive ABPP (Table 7)) and more than 250 nM in assay [1] (competitive ABPP (Table 7)).

Turning to `O=C(OC(C(F)(F)F)C(F)(F)F)N1CCN(Cc2ccc(Cl)cc2N2CCCC2)CC1` [Example 9z, 1,1,1,3,3,3-hexafluoropropan-2-yl 4-(4-chloro-2-(pyrrolidin-1-yl)benzyl)piperazine-1-carboxylate], in assay [1] (competitive ABPP (Table 7)), the IC50 is more than 10000 nM.

In the case of `O=C(OC(C(F)(F)F)C(F)(F)F)N1CCN(Cc2cc(-c3ccccc3)on2)CC1` [Example 10b, 1,1,1,3,3,3-hexafluoropropan-2-yl 4-((5-phenylisoxazol-3-yl)methyl)piperazine-1-carboxylate], the IC50 in assay [3] (competitive ABPP (Table 7)) was 100 to 1000 nM. As for `Cc1nn(-c2ccccc2)cc1CN1CCN(C(=O)OC(C(F)(F)F)C(F)(F)F)CC1` [Example 10c, 1,1,1,3,3,3-hexafluoropropan-2-yl 4-((3-methyl-1-phenyl-1H-pyrazol-4-yl)methyl)piperazine-1-carboxylate], the IC50 in assay [1] (competitive ABPP (Table 7)) is more than 6250 nM. With `Cn1nc(-c2ccccc2)cc1CN1CCN(C(=O)OC(C(F)(F)F)C(F)(F)F)CC1` [Example 10d, 1,1,1,3,3,3-hexafluoropropan-2-yl 4-((1-methyl-3-phenyl-1H-pyrazol-5-yl)methyl)piperazine-1-carboxylate], in assay [1] (competitive ABPP (Table 7)), the IC50 is more than 10000 nM. With `Cn1cc(CN2CCN(C(=O)OC(C(F)(F)F)C(F)(F)F)CC2)c(-c2ccccc2)n1` [Example 10e, 1,1,1,3,3,3-hexafluoropropan-2-yl 4-((1-methyl-3-phenyl-1H-pyrazol-4-yl)methyl)piperazine-1-carboxylate], in assay [1] (competitive ABPP (Table 7)), the IC50 is more than 10000 nM. In assay [3] (competitive ABPP (Table 7)), `Cn1ncc(Br)c1CN1CCN(C(=O)OC(C(F)(F)F)C(F)(F)F)CC1` [Example 10f, 1,1,1,3,3,3-hexafluoropropan-2-yl 4-((4-bromo-1-methyl-1H-pyrazol-5-yl)methyl)piperazine-1-carboxylate] returned an IC50 of 100 to 1000 nM. `O=C(OC(C(F)(F)F)C(F)(F)F)N1CCN(Cc2ccc(-c3ccccc3)cc2N2CCOCC2)CC1` [Example 11f, 1,1,1,3,3,3-hexafluoropropan-2-yl 4-((3-morpholino-[1,1′-biphenyl]-4-yl)methyl)piperazine-1-carboxylate] showed an IC50 in assay [3] (competitive ABPP (Table 7)) of more than 1000 nM. In turn, `Cn1cc(CN2CCN(C(=O)OC(C(F)(F)F)C(F)(F)F)CC2)c(-c2ccccc2Cl)n1` [l0g, 1,1,1,3,3,3-hexafluoropropan-2-yl 4-[[3-(2-chlorophenyl)-1-methyl-1H-pyrazol-4-yl]methyl]piperazine-1-carboxylate] showed an IC50 in assay [1] (competitive ABPP (Table 7)) of more than 10000 nM.

The values above are taken from patent US9133148B2, “Carbamate compounds and of making and using same” (Abide Therapeutics, Inc., priority 2012, dated 2015).
